This is an account of results in US20210379035A1, “Methods Of Treating Fabry Patients Having Renal Impairment” (Amicus Therapeutics, Inc., priority 2017, published 2021).

The test concerns Fabry patients. The test can be described thus: Long-term analysis of 12 patients that completed multiple studies: eGFR. The conditions noted are these: 11 patients who received migalastat HCl 150 mg QOD for ≥17 months (mean exposure, 4-5 years). Type of test: in vivo, human. From the text:
In addition to the studies described above, other patients also received migalastat therapy in other studies such as dose-finding studies and/or long-term extension studies. […] 12 patients that completed multiple studies were further analyzed. Linear regression was used to calculate the annualized rate of change in […] from baseline.

For `Cl.OC[C@H]1NC[C@H](O)[C@@H](O)[C@H]1O` [migalastat HCl, migalastat hydrochloride], the “annualized mean change in eGFRCKD-EPI” value is listed as 0.24 mL/min/1.72 m^2.
